ChEMBL document CHEMBL1201862, “PubChem BioAssay data set” (2004)
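The compound was tested at five concentrations on cells cultured in 96-well plates, with a 48-hour exposure period. GI50 is the concentration that inhibits growth by half.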 Calls of active or inactive are those of the source. Rule as the data show it: active = GI50 up to about 1.1 µM and inactive = higher.

How the values were obtained:
Test in all cases: NCI anticancer screen, dose series, 48 h
ACHN = tested on: ACHN
EKVX = tested on: EKVX
HCT-15 = tested on: HCT-15
Hs-578T = tested on: Hs-578T
K562 = tested on: K562
MDA-MB-435 = tested on: MDA-MB-435
MOLT-4 = tested on: MOLT-4
NCI-H23 = tested on: NCI-H23
OVCAR-5 = tested on: OVCAR-5
RXF 393 = tested on: RXF 393
SK-MEL-28 = tested on: SK-MEL-28
SK-MEL-2 = tested on: SK-MEL-2
SK-OV-3 = tested on: SK-OV-3
SW-620 = tested on: SW-620
T47D = tested on: T47D
U-251 = tested on: U-251
A549 = tested on: A549
MDA-N = tested on: MDA-N
OVCAR-8 = tested on: OVCAR-8
UACC-257 = tested on: UACC-257

SMILES | GI50 (ACHN) | GI50 (EKVX) | GI50 (HCT-15) [µM] | GI50 (Hs-578T) | GI50 (K562) | GI50 (MDA-MB-435) | GI50 (MOLT-4) | GI50 (NCI-H23) | GI50 (OVCAR-5) | GI50 (RXF 393) | GI50 (SK-MEL-28) | GI50 (SK-MEL-2) | GI50 (SK-OV-3) | GI50 (SW-620) | GI50 (T47D) | GI50 (U-251) | GI50 (A549) | GI50 (MDA-N) | GI50 (OVCAR-8) | GI50 (UACC-257)
CO[C@@H]1[C@H](O)CC[C@]2(CO2)[C@H]1[C@@]1(C)O[C@@H]1CC=C(C)C | 155 µM (inactive) | 165 µM (inactive) | 46.1 | > 200 µM (inactive) | > 200 µM (inactive) | 95.5 µM (inactive) | 80.5 µM (inactive) | > 200 µM (inactive) | > 200 µM (inactive) | > 200 µM (inactive) | > 200 µM (inactive) | > 200 µM (inactive) | > 200 µM (inactive) | 107 µM (inactive) | > 200 µM (inactive) | 2.29 µM (inactive) |  |  |  | 
C1CSCCSCCS1 |  | > 100 µM (inactive) | > 100 |  | > 100 µM (inactive) | > 100 µM (inactive) | > 100 µM (inactive) | > 100 µM (inactive) | > 100 µM (inactive) | > 100 µM (inactive) | > 100 µM (inactive) |  | > 100 µM (inactive) | > 100 µM (inactive) | > 100 µM (inactive) | > 100 µM (inactive) | > 100 µM (inactive) | > 100 µM (inactive) | > 100 µM (inactive) | > 100 µM (inactive)
FC(F)(F)P1C2C=CC(CC2)C1(F)F (stereo not drawn) | > 100 µM (inactive) | > 100 µM (inactive) | > 100 |  | > 100 µM (inactive) |  | > 100 µM (inactive) | > 100 µM (inactive) | > 100 µM (inactive) | > 100 µM (inactive) | > 100 µM (inactive) | > 100 µM (inactive) | > 100 µM (inactive) | 63.2 µM (inactive) |  | > 100 µM (inactive) | > 100 µM (inactive) |  | > 100 µM (inactive) | > 100 µM (inactive)
O=C(NCc1cccc2ccccc12)N/N=C\c1ccc(Cl)cc1 | > 100 µM (inactive) | 36.1 µM (inactive) | > 100 |  | > 100 µM (inactive) | 28.1 µM (inactive) | > 100 µM (inactive) | > 100 µM (inactive) | > 100 µM (inactive) | > 100 µM (inactive) | > 100 µM (inactive) | > 100 µM (inactive) |  | 88.3 µM (inactive) | > 100 µM (inactive) | > 100 µM (inactive) |  | 9.82 µM (inactive) | > 100 µM (inactive) | > 100 µM (inactive)
CN(C)/C=N/C1CCC(C(C)(C)C)CC1 (stereo not drawn) | 21.2 µM (inactive) | 22.4 µM (inactive) | 17.2 | 20.7 µM (inactive) | 15 µM (inactive) | 18.7 µM (inactive) | 12.9 µM (inactive) | 17.8 µM (inactive) | 17.7 µM (inactive) | 19.2 µM (inactive) | 15.9 µM (inactive) | 18.6 µM (inactive) | 21.3 µM (inactive) | 16.9 µM (inactive) | 16.4 µM (inactive) | 16.1 µM (inactive) | 18.7 µM (inactive) |  | 15.6 µM (inactive) | 15.7 µM (inactive)
COc1cc(C(=O)OCCn2[nH]c(-c3ccc(Cl)cc3)nc2=S)cc(OC)c1OC | > 100 µM (inactive) | 91.6 µM (inactive) | 36 | 47.8 µM (inactive) | 47.8 µM (inactive) | 51.1 µM (inactive) | 22.9 µM (inactive) | 49.1 µM (inactive) | > 100 µM (inactive) | 1.33 µM (inactive) | 42.7 µM (inactive) | > 100 µM (inactive) | > 100 µM (inactive) | > 100 µM (inactive) |  | 83.8 µM (inactive) | 98.6 µM (inactive) | 49 µM (inactive) | 90.8 µM (inactive) | 44.1 µM (inactive)
O=S(=O)(c1cc(Cl)ccc1Cl)N1CCN(c2ccc(Cl)c(Cl)c2)CC1 | 37 µM (inactive) | 32.2 µM (inactive) | > 100 | 29.9 µM (inactive) | 91.6 µM (inactive) |  | > 100 µM (inactive) | 33.4 µM (inactive) | > 100 µM (inactive) | 21 µM (inactive) | > 100 µM (inactive) |  |  | > 100 µM (inactive) | 20.4 µM (inactive) | 21.7 µM (inactive) | 35.7 µM (inactive) |  | 23.3 µM (inactive) | 33.3 µM (inactive)
CC(C)C1(Cl)CCC2C3(C)CCCC(C)(C(=O)O)C3CC(Cl)C2(Cl)C1Cl (stereo not drawn) | 43.2 µM (inactive) | 21.5 µM (inactive) | 36.6 | 37.5 µM (inactive) | 24.3 µM (inactive) | 25.9 µM (inactive) | 19.4 µM (inactive) | 54.2 µM (inactive) | 22.4 µM (inactive) |  | 16.7 µM (inactive) | 31.4 µM (inactive) |  | 24.8 µM (inactive) |  | 20.7 µM (inactive) | 23.5 µM (inactive) | 32.4 µM (inactive) | 38.7 µM (inactive) | 31.1 µM (inactive)
CC1(C)[C@@H]2C[C@H]1[C@@H](Cc1cccc(C[C@H]3c4cc(-c5ccccn5)ncc4[C@H]4C[C@@H]3C4(C)C)c1)c1cc(-c3ccccn3)ncc12 | 1.37 µM (inactive) | 4.62 µM (inactive) | 8.24 |  | 1.19 µM (inactive) | 2.96 µM (inactive) | 1.41 µM (inactive) | 4.9 µM (inactive) | > 72.4 µM (inactive) | 4.39 µM (inactive) | 4.92 µM (inactive) | > 100 µM (inactive) | > 100 µM (inactive) | 8.45 µM (inactive) | 2.44 µM (inactive) | 2.92 µM (inactive) | 2.76 µM (inactive) | 6.22 µM (inactive) | 1.79 µM (inactive) | 4.62 µM (inactive)
COc1cccc(-c2nc(-c3cnccn3)n(C/C=C/c3ccccc3)n2)c1 | > 10 µM (inactive) | > 10 µM (inactive) | > 10 | > 10 µM (inactive) | > 10 µM (inactive) | > 10 µM (inactive) | > 10 µM (inactive) | > 10 µM (inactive) | > 10 µM (inactive) |  |  | > 10 µM (inactive) |  | > 10 µM (inactive) |  | > 10 µM (inactive) | > 10 µM (inactive) | > 10 µM (inactive) | > 10 µM (inactive) | > 10 µM (inactive)
c1ccc(C2N3CCCCC3[C@@H]3c4[nH]c5ccccc5c4CCN23)nc1 (stereo partly drawn) | > 100 µM (inactive) | > 100 µM (inactive) | > 100 |  | 94 µM (inactive) |  | > 100 µM (inactive) | > 100 µM (inactive) | > 100 µM (inactive) | 33.3 µM (inactive) | > 100 µM (inactive) | > 100 µM (inactive) | > 100 µM (inactive) | > 100 µM (inactive) |  | > 100 µM (inactive) | > 100 µM (inactive) |  | > 100 µM (inactive) | > 100 µM (inactive)
C=CCn1c2ccccc2[n+]2cc([N+](=O)[O-])ccc12 | 33.1 µM (inactive) | 37 µM (inactive) | 34.5 |  | 13 µM (inactive) | 26.4 µM (inactive) | 28.2 µM (inactive) | 20 µM (inactive) | 74 µM (inactive) | 67.3 µM (inactive) | 34.2 µM (inactive) | 27.2 µM (inactive) | 47.2 µM (inactive) | 30.8 µM (inactive) | 32.3 µM (inactive) | 31.9 µM (inactive) | > 100 µM (inactive) | 23.9 µM (inactive) | 27 µM (inactive) | 21.3 µM (inactive)
Cc1nn(C)c(=O)c2nn(-c3ccccc3)c(C)c12 | > 100 µM (inactive) | > 100 µM (inactive) | > 100 |  | > 100 µM (inactive) |  | > 100 µM (inactive) | > 100 µM (inactive) | > 100 µM (inactive) | > 100 µM (inactive) | > 100 µM (inactive) | > 100 µM (inactive) | > 100 µM (inactive) | > 100 µM (inactive) |  | > 100 µM (inactive) | > 100 µM (inactive) |  | > 100 µM (inactive) | > 100 µM (inactive)
Nc1nc(Cl)c(CO)c(NCC2(CO)CC(CCc3ccccc3)C2)n1 (stereo not drawn) | 24.4 µM (inactive) | 19.2 µM (inactive) | 20.6 | > 10 µM (inactive) | 1.37 µM (inactive) | 11.5 µM (inactive) | 2.1 µM (inactive) | 0.0951 µM (active) | 29.2 µM (inactive) | 20.9 µM (inactive) | 20.4 µM (inactive) |  |  | 19.6 µM (inactive) |  | 26.2 µM (inactive) | 18.6 µM (inactive) | > 100 µM (inactive) | 12.7 µM (inactive) | 11.4 µM (inactive)
CC(=O)CC(=O)Nn1c(-c2cccs2)nc2ccc(I)cc2c1=O | > 57 µM (inactive) | > 37.7 µM (inactive) | > 57.7 |  | > 65.9 µM (inactive) | > 60.7 µM (inactive) | > 70.1 µM (inactive) | > 49 µM (inactive) | > 55.1 µM (inactive) | > 68.9 µM (inactive) | > 100 µM (inactive) | > 56.6 µM (inactive) | > 66.7 µM (inactive) | > 52.7 µM (inactive) | > 62.1 µM (inactive) | > 56 µM (inactive) | > 64.3 µM (inactive) | > 100 µM (inactive) | > 57.3 µM (inactive) | 33 µM (inactive)
CC(=O)O[C@H]1C(=O)[C@@]2(C)[C@H]([C@H](OC(=O)c3ccccc3)[C@]3(O)C[C@H](OC(=O)[C@H](O)[C@@H](NC(=O)C(C)(C)C)c4ccccc4)C(C)=C1C3(C)C)[C@]1(OC(C)=O)CO[C@@H]1C[C@@H]2O | 3.32 µM (inactive) | 1.87 µM (inactive) | 1.41 | 0.0485 µM (active) | 0.0516 µM (active) | 0.0158 µM (active) | 0.0454 µM (active) | 0.075 µM (active) | 0.508 µM (active) | 0.188 µM (active) | 0.105 µM (active) | 0.0736 µM (active) | 0.0177 µM (active) | 0.0459 µM (active) |  | 0.137 µM (active) | 0.0809 µM (active) | 0.022 µM (active) | 0.0668 µM (active) | 0.127 µM (active)
